Measured values published in patent US20150118304A1, “COMPOSITIONS COMPRISING SULFORAPHANE OR A SULFORAPHANE PRECURSOR AND MAGNESIUM” (Nutramax Laboratories, Inc., priority 2012, published 2015).
Like-named read-outs stand apart in the source and are kept apart here. Blank lines part the entries; values can stand above or below the compound they belong to.

How the values were obtained:
myrosinase [1] = experiment: Equimolar conversion of glucoraphanin to sulforaphane by myrosinase, with and without ascorbic acid; type: biochemical; details: Part 2; broccoli seed extract fixed at 250 mg
Procedure: A two-part experiment was conducted to further elucidate the role of ascorbic acid in modulating myrosinase activity. […] A control sample contained no ascorbic acid, and the enzymatic conversion proceeded unassisted by a co-factor. PART 1. […] PART 2. While keeping the amount of broccoli seed extract fixed at 250 mg, the concentration of ascorbic acid was varied from 0.4 mmol/Liter to 3.8 mmol/Liter.

myrosinase [2] = experiment: Conversion of glucoraphanin to sulforaphane in Simulated Intestinal Fluid; type: biochemical, broccoli; details: 0.25 to 1.00 mmol/Liter ascorbic acid, 38° C., especially at the earlier stages, FIG. 4
Procedure: Simulated Intestinal Fluid (SIF) powder, a commercially supplied concentrate closely approximating the human intestinal content in terms of composition, pH and ionic strength, was used. The experiment utilized a USP Dissolution Apparatus 2 (paddles), where into six dissolution vessels 500 mL of Simulated Intestinal Fluid was dispensed, along with 150 mg of freeze-dried broccoli sprout powder as a source of myrosinase. […] Aliquots were withdrawn every 15 minutes, and assayed for sulforaphane.

[3] = system: broccoli sprout-derived myrosinase; experiment: Hydrolysis of glucoraphanin (broccoli seed extract) by myrosinase as a function of ascorbic acid concentration; type: biochemical; details: 38° C.; for Slope (rate of glucoraphanin consumption): linear regression 0-60 min
Procedure: About 250 mg of broccoli seed extract containing about 12% (w/w) glucoraphanin were subjected to hydrolysis by a fixed concentration of broccoli sprout-derived myrosinase in the presence of variable concentration of ascorbic acid, ranging from 0 to 600 μmoles/Liter. The reaction mixtures were thermostated at 38° C.; aliquots were withdrawn every 15 minutes for 60 minutes, and concentration of glucoraphanin determined chromatographically. The rate of glucoraphanin consumption was interpreted as the rate its conversion to sulforaphane. Graphical representation of glucoraphanin content reduction as a function of increasing ascorbic acid concentration results in a series of linear plots; the slopes of the linear regression lines reflect the rate of glucoraphanin consumption, in μmoles/minute. It is apparent that in the presence of 600 μmoles/Liter concentration of ascorbic acid, the reaction rate increased 13-fold relative to that which proceeded in the absence of modulatory effects of ascorbic acid.

mammary tumors = details: Sprague-Dawley rats; cited from earlier work
[4] = system: monocyte chemoattractant protein (MCP-1); details: 24 hours, RAW cells activated with 1 μg/mL LPS
Procedure: The following study was conducted to determine the effect of the combination of sulforaphane and magnesium sulfate (MgSO4) on expression of monocyte chemoattractant protein (MCP-1), which is a mediator of inflammation. MCP-1 is chemokine which attracts monocytes, macrophages, and lymphocytes to sites of inflammation. A reduction in MCP-1 is beneficial for the health of endothelial cells which line the cardiovascular system.
In the study, RAW cells were activated with 1 μg/mL lipopolysaccharide (LPS) for 30 minutes to stimulate the induction of MCP-1 gene expression. Following LPS treatment, the cells were treated with one of the following: (i) DMSO (vehicle control), (ii) 0.5 μM SFN, (iii) 2.5 mM MgSO4, or (iv) the combination of 0.5 μM SFN and 2.5 mM MgSO4. After treatment for 24 hours, the MCP-1 levels were assessed via quantitative RT-PCR.

[5] = system: NAD(P)H:quinine oxidoreductase (NQO1); details: oral administration; mammary epithelium; Sprague-Dawley rats; cited from earlier work
heme oxygenase-1 (HO-1) = details: oral administration; mammary epithelium; Sprague-Dawley rats; cited from earlier work

ascorbic acid concentration up to which myrosinase-promoted conversion increases apparently linearly, then levels off (myrosinase [1]): about 2 mmol/L
Compound: O=C1O[C@H]([C@@H](O)CO)C(O)=C1O [Ascorbic Acid, ascorbic acid]
relation of sulforaphane yield to ascorbic acid concentration (myrosinase [2]): direct correlation between larger yield of sulforaphane and higher concentrations of ascorbic acid
increase of reaction rate (glucoraphanin consumption) ([3]; 600 μmoles/Liter ascorbic acid, relative to absence of ascorbic acid): 13 fold
Slope (rate of glucoraphanin consumption) ([3]; ascorbic acid 50 μM): -0.286 µmol/min
glucoraphanin (GR) content ([3]; ascorbic acid 50 μM, time 0 min): 93.36 µmol
glucoraphanin (GR) content ([3]; ascorbic acid 50 μM, time 15 min): 89.20 µmol
glucoraphanin (GR) content ([3]; ascorbic acid 50 μM, time 30 min): 84.24 µmol
glucoraphanin (GR) content ([3]; ascorbic acid 50 μM, time 45 min): 80.30 µmol
glucoraphanin (GR) content ([3]; ascorbic acid 50 μM, time 60 min): 76.36 µmol
Slope (rate of glucoraphanin consumption) ([3]; ascorbic acid 125 μM): -0.5622 µmol/min
glucoraphanin (GR) content ([3]; ascorbic acid 125 μM, time 0 min): 93.36 µmol
glucoraphanin (GR) content ([3]; ascorbic acid 125 μM, time 15 min): 84.52 µmol
glucoraphanin (GR) content ([3]; ascorbic acid 125 μM, time 30 min): 75.92 µmol
glucoraphanin (GR) content ([3]; ascorbic acid 125 μM, time 45 min): 68.09 µmol
glucoraphanin (GR) content ([3]; ascorbic acid 125 μM, time 60 min): 59.41 µmol
Slope (rate of glucoraphanin consumption) ([3]; ascorbic acid 250 μM Filtered): -0.4714 µmol/min
glucoraphanin (GR) content ([3]; ascorbic acid 250 μM Filtered, time 0 min): 93.36 µmol
glucoraphanin (GR) content ([3]; ascorbic acid 250 μM Filtered, time 15 min): 86.31 µmol
glucoraphanin (GR) content ([3]; ascorbic acid 250 μM Filtered, time 30 min): 79.44 µmol
glucoraphanin (GR) content ([3]; ascorbic acid 250 μM Filtered, time 45 min): 71.94 µmol
glucoraphanin (GR) content ([3]; ascorbic acid 250 μM Filtered, time 60 min): 65.18 µmol
Slope (rate of glucoraphanin consumption) ([3]; ascorbic acid 250 μM): -0.7901 µmol/min
glucoraphanin (GR) content ([3]; ascorbic acid 250 μM, time 0 min): 93.36 µmol
glucoraphanin (GR) content ([3]; ascorbic acid 250 μM, time 15 min): 80.95 µmol
glucoraphanin (GR) content ([3]; ascorbic acid 250 μM, time 30 min): 69.06 µmol
glucoraphanin (GR) content ([3]; ascorbic acid 250 μM, time 45 min): 57.63 µmol
glucoraphanin (GR) content ([3]; ascorbic acid 250 μM, time 60 min): 45.76 µmol
Slope (rate of glucoraphanin consumption) ([3]; ascorbic acid 400 μM): -1.007 µmol/min
glucoraphanin (GR) content ([3]; ascorbic acid 400 μM, time 0 min): 93.36 µmol
glucoraphanin (GR) content ([3]; ascorbic acid 400 μM, time 15 min): 78.32 µmol
glucoraphanin (GR) content ([3]; ascorbic acid 400 μM, time 30 min): 62.78 µmol
glucoraphanin (GR) content ([3]; ascorbic acid 400 μM, time 45 min): 47.67 µmol
glucoraphanin (GR) content ([3]; ascorbic acid 400 μM, time 60 min): 33.15 µmol
Slope (rate of glucoraphanin consumption) ([3]; ascorbic acid 600 μM): -1.2 µmol/min
glucoraphanin (GR) content ([3]; ascorbic acid 600 μM, time 0 min): 93.36 µmol
glucoraphanin (GR) content ([3]; ascorbic acid 600 μM, time 15 min): 75.02 µmol
glucoraphanin (GR) content ([3]; ascorbic acid 600 μM, time 30 min): 55.66 µmol
glucoraphanin (GR) content ([3]; ascorbic acid 600 μM, time 45 min): 37.50 µmol
glucoraphanin (GR) content ([3]; ascorbic acid 600 μM, time 60 min): 22.09 µmol

Compound: C[S+]([O-])CCCCN=C=S (centres unmarked) [sulforaphane, 1-isothiocyanato-4-methylsulfinylbutane]
blocking the formation of mammary tumors (mammary tumors): effective in blocking the formation of mammary tumors
decrease in MCP-1 levels ([4]; 0.5 μM SFN): approximately 29%
increase in NQO1 enzymatic activity [5]: 3 fold
elevated immunostaining of HO-1 (heme oxygenase-1 (HO-1)): 4 fold

Compound: O=S(=O)([O-])[O-].[Mg+2] [magnesium sulfate]
decrease in MCP-1 levels ([4]; 2.5 mM MgSO4): approximately 16%
